The text below walks through data of patent US20180141965A1, “AUTOTAXIN INHIBITORS AND USES THEREOF” (NATIONAL AND KAPODISTRIAN UNIVERSITY OF ATHENS, priority 2015, published 2018).

Read-outs that look alike come from different tables or passages of the source.

In this test the target is T1, recombinant ATX (mouse ATX-β) (Mus musculus, UniProt Q9R1E6).
T1 construct: purchased Sino Biological
Description: Inhibition of ATX, Amplex Red PLD assay kit. It is filed as biochemical. The settings on record: 2 nM recombinant ATX, mean of two independent experiments. On the procedure:
The in vitro activity of the synthetic inhibitors was studied using the Amplex™ Red PLD assay kit (Molecular Probes, Interchim, Montlucon, France). Inhibitors were dissolved in DMSO (stock solution 3 mM) and appropriate dilutions were made in DMSO. […] The IC50 values were determined using the mean values obtained from two independent experiments. The IC50 values were determined graphically using the sigmoid dose-response fitting method (PrismH software) by the equation f=y0+a/(1+exp(−(x−x0)/b)) given by SigmaPlot 11.0.

Setting [1] is: hydroxamates, substrate 50 μM LPC 16:0, read-out: IC50 (μM) 16:0 LPC.
The mark [2] stands for this setting: thioamides/phosphonates/phosphinates, substrate 50 μM LPC 16:0, read-out: IC50 (μM) 16:0 LPC.
The mark [3] stands for this setting: hydroxamates, substrate 50 μM LPC 18:0, read-out: IC50 (μM) 18:0 LPC.
The mark [4] stands for this setting: thioamides/phosphonates/phosphinates, substrate 50 μM LPC 18:1, read-out: IC50 (μM) 18:1 LPC.
Setting [5] is: thioamides/phosphonates/phosphinates, substrate 50 μM LPC 18:0, read-out: IC50 (μM) 18:0 LPC.

For the compound `CCCC[C@@H](CCCC(=O)NO)NC(=O)CCCCC(=O)Nc1ccccc1` [GK442], the IC50 under setting [1] was found to be 0.06 µM. Regarding `CCCCCCCCCCCCNC(=S)NCCCCC(=S)NCC` [GK446], under setting [2], the half-inhibitory concentration (IC50) was determined as 0.06 µM.

Take `COC(=O)[C@@H](CCCC(=O)NO)NC(=O)CCCCC(=O)Nc1ccccc1` [GK400]: under setting [1], the IC50 is 0.05 µM. On the same count and under the same terms, for `CCCCCCCCc1ccc(CCC(=O)Nc2ccc(CC(=O)NO)cc2)cc1` [GK345] the value was 5 µM. For the compound `COC(=O)[C@@H](CCC(=O)NO)NC(=O)CCCCC(=O)Nc1ccccc1` [GK337], the 50% inhibitory concentration (IC50) is, setting by setting: under setting [1], 0.4 µM; under setting [3], 5 µM.

As for `CCCCOc1ccc(CCCCC(=O)Nc2ccc(CC(=O)NO)cc2)cc1` [GK341], the IC50 under setting [1] was found to be 4 µM.

Regarding `O=C(Cc1ccc(NC(=O)CCCCCCc2ccccc2)cc1)NO` [GK333], the half-inhibitory concentration (IC50) under setting [1] amounted to 0.7 µM and the half-maximal inhibitory concentration (IC50) under setting [3] stood at 2 µM.

Regarding `O=C(Cc1ccc(NC(=O)CCCCCCC(=O)Nc2ccccc2)cc1)NO` [GK346], the IC50 under setting [1] came out at 2 µM.

Turning to `CCCCCCCCCCCCCC(=S)NCCCCC(=S)NCC` [GK377], the half-inhibitory concentration (IC50) under setting [2] is 0.198 µM and the half-inhibitory concentration (IC50) under setting [4] was determined as 0.098 µM. Regarding `COc1ccc(C(=O)NCCCCC(=O)Nc2ccc(CC(=O)NO)cc2)cc1` [GK381], the IC50 under setting [1] came to 1 µM. Same read-out and setting: with `O=C(Cc1ccc(NC(=O)CCCCC(=O)Nc2ccccc2)cc1)NO` [GK285] the figure was 1.2 µM.

Consider `CCCCCCCCc1ccc(OCC(=O)Nc2ccc(CC(=O)NO)cc2)cc1` [GK344], for which the half-inhibitory concentration (IC50) runs as follows: under setting [1], 1 µM; under setting [3], 0.3 µM. For the compound `CCCCCCCCCCCCCC(=S)NCCCC[PH](=O)O` [GK325], the IC50 reads like this: under setting [2], 0.5 µM; under setting [5], 1 µM. Taken in the same sequence, the figures for `CCCCCCCCCCCCCC(=O)Nc1ccc(CC[PH](=O)O)cc1` [GK327] were 0.4 µM and 4 µM. Consider `O=C(Cc1ccc(NC(=O)CCCCNC(=O)c2ccccc2)cc1)NO` [GK340], for which the half-inhibitory concentration (IC50) amounted to 1 µM under setting [1] and 0.2 µM under setting [3].

Turning to `CCCCCCCCCCCCCC(=S)NCCCC[PH](=O)O` [GK312], the half-maximal inhibitory concentration (IC50) under setting [2] was 3 µM and the concentration for half-maximal inhibition (IC50) under setting [5] was found to be 0.7 µM. For `CCCCCCCCCCCCCC(=S)NCCCCP(=O)(O)OCC` [GK378], the IC50 is 0.12 µM under setting [2] and 0.05 µM under setting [4].

For the compound `Nc1ccccc1NC(=O)Cc1ccc(NC(=O)CCCCC(=O)Nc2ccccc2)cc1` [GK335], the half-maximal inhibitory concentration (IC50) under setting [1] is 0.6 µM.

As for `CCCCCCCCCCCCCC(=O)Nc1ccc(CC(=O)NO)cc1` [GK332], the 50% inhibitory concentration (IC50) under setting [1] stood at 1 µM and the half-inhibitory concentration (IC50) under setting [3] was found to be 0.2 µM. In the case of `COC(=O)[C@@H](CCC(=O)NO)NC(=O)CCCCC(=O)Nc1ccc(OC)cc1` [GK382], the IC50 under setting [1] turned out to be 4 µM. Still for that read-out and setting: with `CCCC[C@@H](CCCC(=O)NO)NC(=S)NCCCC(=O)Nc1ccccc1` [GK471] the figure was 0.8 µM.
